Read-outs that look alike come from different tables or passages of the source.

Assay [1] addresses T1, sEH (Homo sapiens, UniProt P34913).
T1 sequence (P34913 1-555): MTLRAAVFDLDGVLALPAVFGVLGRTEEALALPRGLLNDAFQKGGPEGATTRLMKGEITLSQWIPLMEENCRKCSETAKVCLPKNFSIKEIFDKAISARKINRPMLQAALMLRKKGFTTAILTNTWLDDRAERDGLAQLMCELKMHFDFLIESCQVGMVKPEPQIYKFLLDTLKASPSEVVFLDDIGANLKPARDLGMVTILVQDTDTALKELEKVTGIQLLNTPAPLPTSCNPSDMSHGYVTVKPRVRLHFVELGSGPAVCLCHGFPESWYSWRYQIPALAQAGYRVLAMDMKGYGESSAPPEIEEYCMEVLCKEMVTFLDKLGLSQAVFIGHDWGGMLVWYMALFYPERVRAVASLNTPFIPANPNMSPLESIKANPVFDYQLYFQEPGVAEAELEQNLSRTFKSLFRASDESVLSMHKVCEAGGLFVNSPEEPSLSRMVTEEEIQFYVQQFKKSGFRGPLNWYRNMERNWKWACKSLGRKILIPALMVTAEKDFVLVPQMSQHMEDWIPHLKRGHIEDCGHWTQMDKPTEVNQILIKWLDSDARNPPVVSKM
The assay can be described thus: sEH inhibitory activity. Particulars: for Inhibition of compounds against sEH, 50 μM (%): compound at 50 μM.

The target in assay [2] is T1, sEH. The assay can be described thus: Inhibitory kinetic analysis.
[3] abbreviates: read-out: Inhibition of compounds against sEH, IC50, PHOME 10 μM, 20 min, 37 °C, pH 7.4.
Where [4] appears, read: PHOME 10 μM, 20 min, 37 °C, pH 7.4.

A word on the IC50: it is the concentration needed to halve the response being measured. In the case of “25-ethoxy-16-oxo-11-anhydro alisol A [Compound 18]”, the IC50 on sEH [1] (setting [3]) turned out to be 31.5 ± 1.4 µM.

As a reminder, the inhibition is the drop in the measured response relative to a control, in per cent. `C[C@H](C[C@H](O)[C@@H](O)C(C)(C)O)C1=C2C[C@H](O)[C@H]3[C@@]4(C)CCC(=O)C(C)(C)[C@@H]4CC[C@]3(C)[C@@]2(C)CC1` [Compound 2, alisol A] registered an IC50 at sEH [1] greater than 50 µM. Moreover, the inhibition at 50 µM on sEH [1] (pH 7.4, read-out: Inhibition of compounds against sEH, 50 μM (%)) is 27.3 ± 2.81%.

As to `C=C(C)[C@H](O)[C@@H](O)C[C@@H](C)C1=C2C=C[C@H]3[C@@]4(C)CCC(=O)C(C)(C)[C@@H]4CC[C@]3(C)[C@@]2(C)CC1=O` [Compound 12, alismanol B], at sEH [1] (setting [4]), the “Inhibition of compounds against sEH, 50 μM (%)” value (shortened to “Inhibition of compounds … (%)”) was determined as 44.97 ± 0.95%. Moreover, on sEH [1] (setting [3]), the IC50 was greater than 50 µM.

In the case of `COC(=O)C[C@@H](C)C1=C2[C@H](O)C[C@H]3[C@@]4(C)CCC(=O)C(C)(C)[C@@H]4CC[C@]3(C)[C@@]2(C)C[C@@H]1OC` [Compound 17, alismanin E], the “Inhibition of compounds … (%)” value on sEH [1] (setting [4]) came out at 49.44 ± 1.15%. Further, at sEH [1] (setting [3]), the IC50 is greater than 50 µM.

Turning to `C[C@@H]1C[C@@H]([C@@H](O)C(C)(C)O)O[C@H]2C[C@@]3(C)C(=C12)CC[C@H]1[C@@]2(C)CCC(=O)C(C)(C)[C@@H]2CC[C@@]13C` [Compound 13, 11-deoxy alisol F], the IC50 on sEH [1] (setting [3]) was found to be 22.1 ± 1.4 µM.

Take “16-oxo-11-anhydro alisol A 23,24-acetonide [Compound 11]”: on sEH [1] (setting [3]), the IC50 was 36.3 ± 4 µM.

On to `CC1(C)O[C@@H]1[C@@H](O)C[C@](C)(O)C1=C2C[C@H](O)[C@H]3[C@@]4(C)CCC(=O)C(C)(C)[C@@H]4CC[C@]3(C)[C@@]2(C)CC1=O` [Compound 19, 20-hydroxy alisol C], for which the IC50 at sEH [1] (setting [3]) stood at 22.2 ± 1 µM.

In the case of `COC(C[C@@H](C)C1=C2C[C@H](O)[C@H]3[C@@]4(C)CCC(=O)C(C)(C)[C@@H]4CC[C@]3(C)[C@@]2(C)CC1)OC` [Compound 3, alismanin D], the “Inhibition of compounds … (%)” value at sEH [1] (setting [4]) was 78.54 ± 1.86%. The IC50 on sEH [1] (setting [3]) was determined as 14.8 ± 1.1 µM.

In the case of `C[C@@H]1C[C@@H]([C@@H](O)C(C)(C)O)O[C@H]2C[C@@]3(C)C(=C12)C[C@H](O)[C@H]1[C@@]2(C)CCC(=O)C(C)(C)[C@@H]2CC[C@@]13C` [Compound 14, alisol F], on sEH [1] (setting [4]), the “Inhibition of compounds … (%)” value was determined as 18.30 ± 0.35%. Besides, the IC50 at sEH [1] (setting [3]) was greater than 50 µM.

For the compound `C[C@@H]1C[C@@H]([C@@H](O)C(C)(C)O)O[C@H]2C[C@@]3(C)C(=C12)[C@H](O)C[C@H]1[C@@]2(C)CCC(=O)C(C)(C)[C@@H]2CC[C@@]13C` [Compound 22, 11-deoxy-12β-hydroxy alisol F], the “Inhibition of compounds … (%)” value at sEH [1] (setting [4]) turned out to be 17.96 ± 0.69%. For the same compound, the IC50 at sEH [1] (setting [3]) is greater than 50 µM.

As to `CC(=O)O[C@H]([C@@H](O)C[C@@H](C)C1=C2C[C@H](O)[C@H]3[C@@]4(C)CCC(=O)C(C)(C)[C@@H]4CC[C@]3(C)[C@@]2(C)CC1)C(C)(C)O` [Compound 25, alisol A 24-acetate], at sEH [1] (setting [3]), the IC50 was 21.4 ± 1.7 µM.

In the case of `C=C(C)[C@@H](O)[C@@H]1C[C@@H](C)[C@@]2(CC[C@@]3(C)C2=C[C@H](OC)[C@H]2[C@@]4(C)CCC(=O)C(C)(C)[C@@H]4CC[C@@]23C)O1` [Compound 6, alismanin F], on sEH [1] (setting [4]), the “Inhibition of compounds … (%)” value was 71.6 ± 2.12%. Further, on sEH [1] (setting [3]), the 50% inhibitory concentration (IC50) worked out at 14.6 ± 1.1 µM.

As for “25-methoxy alisol F 23-acetate [Compound 20]”, the “Inhibition of compounds … (%)” value at sEH [1] (setting [4]) was 17.63 ± 0.56%. For the same compound, the IC50 at sEH [1] (setting [3]) is greater than 50 µM.

On to `CCOC(C)(C)[C@H](O)[C@@H](O)C[C@@H](C)C1=C2C[C@H](O)[C@H]3[C@@]4(C)CCC(=O)C(C)(C)[C@@H]4CC[C@]3(C)[C@@]2(C)CC1` [Compound 15, 25-O-ethyl alisol A], for which the “Inhibition of compounds … (%)” value at sEH [1] (setting [4]) was 78.66 ± 2.19%. Further, the IC50 at sEH [1] (setting [3]) came out at 9.57 ± 0.88 µM.

As to `COC1CC2(C)C(=C1C(C)CC(O)C(OC(C)=O)C(C)(C)O)C(O)CC1C3(C)CCC(=O)C(C)(C)C3CCC12C` (stereo not drawn) [Compound 23, 1-deoxy-12β-hydroxy-16β-methoxy alisol A 24-acetate], the “Inhibition of compounds … (%)” value on sEH [1] (setting [4]) was 16.27 ± 0.72%. Also, at sEH [1] (setting [3]), the IC50 is greater than 50 µM.

On to `CC(C)[C@@H](O)C[C@@H](C)C1=C2C[C@H](O)[C@H]3[C@@]4(C)CCC(=O)C(C)(C)[C@@H]4CC[C@]3(C)[C@@]2(C)CC1` [Compound 1, Alismanin B], for which the “Inhibition of compounds … (%)” value at sEH [1] (setting [4]) stood at 75.31 ± 2.42%. The IC50 at sEH [1] (setting [3]) turned out to be 7.15 ± 1.09 µM.

On to `CC(=O)O[C@H]([C@@H]1C[C@@H](C)C2=C3[C@H](O)C[C@H]4[C@@]5(C)CCC(=O)C(C)(C)[C@@H]5CC[C@]4(C)[C@@]3(C)C[C@@H]2O1)C(C)(C)O` [Compound 21, 11-deoxy-12β-hydroxy alisol F 24-acetate], for which the “Inhibition of compounds … (%)” value on sEH [1] (setting [4]) stood at 39.33 ± 0.92%. On sEH [1] (setting [3]), the IC50 was greater than 50 µM.

In the case of `C=C(C)[C@@H]1OC(C)(C)O[C@H]1C[C@@H](C)C1=C2C[C@H](O)[C@H]3[C@@]4(C)CCC(=O)C(C)(C)[C@@H]4CC[C@]3(C)[C@@]2(C)CC1` [Compound 24, alisol G (23, 24)-diol acetonide], the IC50 at sEH [1] (setting [3]) is 14.6 ± 1.6 µM.

What is called Ki is a dissociation constant, usually derived from enzyme kinetics or from competition with a known ligand. Lower therefore signals tighter binding. Take `C=C(C)[C@@H](O)[C@@H](O)C[C@@H](C)C1=C2CC[C@H]3[C@@]4(C)CCC(=O)C(C)(C)[C@@H]4CC[C@]3(C)[C@@]2(C)CC1` [Compound 4, 11-deoxy-25-anhydro alisol E]: the “Inhibition of compounds … (%)” value on sEH [1] (setting [4]) is on record as 71.21 ± 1.56%. Further, on sEH [1] (setting [3]), the IC50 came to 5.94 ± 0.54 µM. Besides, the Inhibition type result on sEH [2] (from Lineweaver-Burk plots) was “mixed-type competitive”. For the same compound, at sEH [2] (inhibition constant from slope plots), the Ki came out at 12.6 µM.

For `C=C(C)[C@H](O)[C@@H]1C[C@@H](C)C2=C3C[C@H](O)[C@H]4[C@@]5(C)CCC(=O)C(C)(C)[C@@H]5CC[C@]4(C)[C@@]3(C)C[C@@H]2O1` [Compound 16, 25-anhydro alisol F], the IC50 at sEH [1] (setting [3]) turned out to be 21.2 ± 0.5 µM.

On to `CC(C)(O)C1O[C@](C)(C2=C3C[C@H](O)[C@H]4[C@@]5(C)CCC(=O)C(C)(C)[C@@H]5CC[C@]4(C)[C@@]3(C)CC2=O)CC1O` (stereo partly shown) [Compound 7, alismanol O], for which the “Inhibition of compounds … (%)” value at sEH [1] (setting [4]) came to 24.45 ± 1.03%. Besides, at sEH [1] (setting [3]), the IC50 is greater than 50 µM.

Take `CC(CC(O)C(=O)C(C)(C)O)C1=C2CC(O)C3C4(C)CCC(=O)C(C)(C)C4CC(O)C3(C)C2(C)CC1` (stereo not drawn) [Compound 10, 7α-hydroxy-24-oxo alisol A]: the “Inhibition of compounds … (%)” value at sEH [1] (setting [4]) was 18.64 ± 0.45%. The IC50 on sEH [1] (setting [3]) is greater than 50 µM.

For alisol B 23-acetate [Compound 9], the “Inhibition of compounds … (%)” value at sEH [1] (setting [4]) came to 37.63 ± 0.86%. At sEH [1] (setting [3]), the IC50 is greater than 50 µM.

With `CC(CC(O)C(O)C(C)(C)O)C1=C2C(O)C(O)C3C4(C)CCC(=O)C(C)(C)C4CC(O)C3(C)C2(C)CC1` (stereo not drawn) [Compound 8, 7α,12α-dihydroxyalisol A], the “Inhibition of compounds … (%)” value at sEH [1] (setting [4]) is reported as 44.42 ± 1.43%. In addition, at sEH [1] (setting [3]), the IC50 is greater than 50 µM.

The values are drawn from PMC7233170 (Bioorganic chemistry, 2020).
